Data as given in patent US12642270B2, “Substituted thiophene carboxamides, thiophene carboxylic acids and derivatives thereof” (Bayer Aktiengesellschaft, priority 2019, dated 2026).

assay: Log P by HPLC on reversed phase columns (EEC directive 79/831 Annex V.A8); type: physicochemical; details: method [a]: LC-UV, acidic range, 0.1% formic acid in water and acetonitrile
Summary of the method: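 Values come from retention times calibrated against alkan-2-ones (3–16 carbons) by linear interpolation, using reversed-phase LC-UV per EEC directive 79/831 Annex V.A8. Acetonitrile gradient 10–95% with 0.1% formic acid [a], 0.001 M ammonium acetate [b] or 0.1% phosphoric acid [c]; several values within one method separated by "+".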

Row | LogP | SMILES
1 | 2.84^[a] | O=C(NC1CCSC1=O)c1sc(Br)c(Br)c1F (stereo not drawn) [I.0006]
2 | 2.89^[a] | O=C(N[C@H]1CCSC1=O)c1sc(Br)c(Br)c1F [I.0017]
3 | 2.01^[a] | O=C(NC1CCCNC1=O)c1sc(Br)c(Br)c1F (stereo not drawn) [I.0061]

same assay, conditions: method [a]: LC-UV, acidic range, 0.1% formic acid in water and acetonitrile; listed as 1.0023

Row | LogP | SMILES
4 | 2.99^[a] | Cc1c(C(=O)NC2CCSC2=O)sc(Cl)c1Br (stereo not drawn) [I.0023]

same assay, conditions: method [a]: LC-UV, acidic range, 0.1% formic acid in water and acetonitrile; listed as 1.0060

Row | LogP | SMILES
5 | 2.25^[a] | O=C(NC1CCOC1=O)c1sc(Br)c(Br)c1F (stereo not drawn) [I.0060]

same assay, conditions: method marker [a] given with each value; Table 1.1, compounds of formula (I)

Row | SMILES | LogP
6 | Cc1c(C(=O)NC2(C(=O)OC(C)C)CC2)sc(C#N)c1Br [1.0964] | 2.93^[a]
7 | Cc1c(C(=O)NCC(=O)OC2CCCC2)sc(C#N)c1Br [1.0965] | 3.24^[a]
8 | CCCOC(=O)C1(NC(=O)c2sc(C#N)c(Br)c2C)CC1 [1.0966] | 2.98^[a]
9 | Cc1c(C(=O)NCC(=O)Oc2ccccc2)sc(C#N)c1Br [1.0967] | 3.10^[a]
10 | Cc1c(C(=O)NC2(C(=O)OC3CCC3)CC2)sc(C#N)c1Br [1.0968] | 3.13^[a]
11 | CCCCOC(=O)C1(NC(=O)c2sc(C#N)c(Br)c2C)CC1 [1.0969] | 3.36^[a]
12 | Cc1c(C(=O)NC2(C(=O)OCC(C)C)CC2)sc(C#N)c1Br [1.0970] | 3.33^[a]
13 | Cc1c(C(=O)NC2(C(=O)OC(C)(C)C)CC2)sc(C#N)c1Br [1.0971] | 3.28^[a]
14 | CCCCOC(=O)CNC(=O)c1sc(C#N)c(Br)c1C [1.0972] | 3.23^[a]
15 | Cc1c(C(=O)NCC(=O)OCc2ccccc2)sc(C#N)c1Br [1.0973] | 3.26^[a]
16 | CCOC(=O)C(NC(=O)c1sc(C#N)c(Br)c1C)C1CC1 (stereo not drawn) [1.0974] | 3.15^[a]
17 | Cc1c(C(=O)NC2(C(=O)OCc3ccccc3)CC2)sc(C#N)c1Br [1.0975] | 3.39^[a]
18 | CNC(=S)C1(NC(=O)c2sc(Br)c(Br)c2F)CC1 [1.0976] | 2.82^[a]
19 | CN(C)C(=S)C1(NC(=O)c2sc(Br)c(Br)c2F)CC1 [1.0977] | 2.93^[a]
20 | COC(=O)C1(NC(=O)c2sc(Cl)c(C)c2Cl)CC1 [1.0978] | 2.86^[a]
21 | COC(=O)C1(NC(=O)c2sc(Br)c(Br)c2F)CCC1 [1.0979] | 3.32^[a]
22 | Cc1c(C(=O)NC2(C(=O)OC3CCCC3)CC2)sc(C#N)c1Br [1.0980] | 3.36^[a]
23 | Cc1c(C(=O)NCC(=O)OC(C)(C)C)sc(C#N)c1Br [1.0981] | 3.14^[a]
24 | Cc1c(C(=O)NCC(=O)OCC2CC2)sc(C#N)c1Br [1.0982] | 2.86^[a]
25 | CCCOC(=O)CNC(=O)c1sc(Br)c(Br)c1Cl [1.0983] | 3.76^[a]
26 | N#CCCOC(=O)CNC(=O)c1sc(Br)c(Br)c1Cl [1.0984] | 2.76^[a]
27 | O=C(CNC(=O)c1sc(Br)c(Br)c1Cl)OCC1CC1 [1.0985] | 3.79^[a]
28 | CC(C)(C)OC(=O)CNC(=O)c1sc(Br)c(Br)c1Cl [1.0986] | 4.20^[a]

Row | SMILES | LogP
29 | CCCCOC(=O)CNC(=O)c1sc(Br)c(Br)c1Cl [1.0987] | 4.22^[a]
30 | O=C(CNC(=O)c1sc(Br)c(Br)c1Cl)OC1CCCC1 [1.0988] | 4.28^[a]
31 | O=C(CNC(=O)c1sc(Br)c(Br)c1Cl)Oc1ccccc1 [1.0989] | 3.93^[a]
32 | O=C(CNC(=O)c1sc(Br)c(Br)c1Cl)OCc1ccccc1 [1.0990] | 4.15^[a]
33 | CCOC(=O)C(NC(=O)c1sc(Br)c(Br)c1Cl)C1CC1 (stereo not drawn) [1.0991] | 4.34^[a]
34 | C#CCOC(=O)CNC(=O)c1sc(C#N)c(Br)c1C [1.0992] | 2.43^[a]
35 | Cc1c(C(=O)NCC(=O)OC2CC2)sc(C#N)c1Br [1.0993] | 2.54^[a]
36 | C=CCOC(=O)CNC(=O)c1sc(C#N)c(Br)c1C [1.0994] | 2.65^[a]
37 | CCCOC(=O)CNC(=O)c1sc(C#N)c(Br)c1C [1.0995] | 2.81^[a]
38 | Cc1c(C(=O)NCC(=O)OCCC#N)sc(C#N)c1Br [1.0996] | 2.09^[a]
39 | O=C(CNC(=O)c1sc(Br)c(Br)c1Cl)SCc1ccccc1 [1.0997] | 4.62^[a]
40 | CCSC(=O)C(NC(=O)c1sc(Br)c(Br)c1Cl)C(C)C (stereo not drawn) [1.0998] | 5.45^[a]
41 | CCOC(=O)CNC(=S)c1sc(Br)c(Br)c1F [1.0999] | 4.23^[a]
42 | CC(C)COC(=O)CNC(=O)c1sc(Br)c(Br)c1F [1.1000] | 3.88^[a]
43 | CNC(=S)CNC(=O)c1sc(Br)c(Br)c1F [1.1001] | 2.56^[a]
44 | CN(C)C(=S)CNC(=O)c1sc(Br)c(Br)c1F [1.1002] | 3.19^[a]
45 | COC(=O)C1(NC(=O)c2sc(Cl)c(Br)c2Cl)CCC1 [1.1003] | 3.74^[a]
46 | COC(=O)C1(NC(=O)c2sc(Cl)c(Cl)c2Br)CCC1 [1.1004] | 3.85^[a]
47 | O=C(CNC(=O)c1sc(Br)c(Br)c1F)OC1CSC1 [1.1007] | 3.37^[a]
48 | N#CCOC(=O)CNC(=O)c1sc(Br)c(Br)c1F [1.1008] | 2.67^[a]
49 | CC(C)C(C#N)NC(=O)c1sc(Br)c(Br)c1F (stereo not drawn) [1.1010] | 3.54^[a]
50 | CC(C)C(C#N)NC(=O)c1sc(Cl)c(Cl)c1Br (stereo not drawn) [1.1013] | 3.84^[a]

More lines, now with the values ahead:

Row | LogP | SMILES
51 | 3.37^[a] | N#CC1(NC(=O)c2sc(Cl)c(Cl)c2Br)CCC1 [1.1014]
52 | 2.64^[a] | Cc1c(C(=O)NC2(C#N)CCC2)sc(C#N)c1Br [1.1015]
53 | 3.03^[a] | Cc1c(C(=O)NC(C#N)C(C)C)sc(C#N)c1Br (stereo not drawn) [1.1016]
54 | 2.95^[a] | O=C(NC1(C(=O)O)CCC1)c1sc(Cl)c(Cl)c1Br [1.1017]
55 | 2.80^[a] | O=C(CNC(=O)c1sc(Br)c(Br)c1F)OC1CCOCC1 [1.1018]
56 | 3.73^[a] | COC(=O)C(C)(C)NC(=O)c1sc(Cl)c(Br)c1Cl [1.1019]
57 | 3.75^[a] | COC(=O)C(C)(C)NC(=O)c1sc(Br)c(Br)c1Cl [1.1020]
58 | 3.71^[a] | COC(=O)C(C)(C)NC(=O)c1sc(Cl)c(Cl)c1Br [1.1021]
59 | 2.80^[a] | CC(C)(NC(=O)c1sc(Cl)c(Br)c1Cl)C(=O)O [1.1022]
60 | 2.81^[a] | CC(C)(NC(=O)c1sc(Br)c(Br)c1Cl)C(=O)O [1.1023]
61 | 2.80^[a] | CC(C)(NC(=O)c1sc(Cl)c(Cl)c1Br)C(=O)O [1.1024]
62 | 3.98^[a] | COC(=O)C(CCSC(C)=O)NC(=O)c1sc(Br)c(Br)c1Cl (stereo not drawn) [1.1025]
63 | 3.40^[a] | O=C(CNC(=O)c1sc(Br)c(Br)c1F)OCC(F)(F)F [1.1026]
64 | 4.40^[a] | C[Si](C)(C)COC(=O)CNC(=O)c1sc(Br)c(Br)c1F [1.1027]
65 | 3.98^[a] | COC(=O)C(CCSC(C)=O)NC(=O)c1sc(Cl)c(Cl)c1Br (stereo not drawn) [1.1028]
66 | 3.45^[a] | O=C(O)C(NC(=S)c1sc(Br)c(Br)c1F)C1CC1 (stereo not drawn) [1.1029]
67 | 3.13^[a] | O=C(O)CNC(=S)c1sc(Cl)c(Cl)c1I [1.1030]
68 | 3.23^[a] | CCOC(=O)C1(NC(=O)c2sc(C#N)c(Cl)c2Cl)CSC1 [1.1041]
69 | 2.28^[a] | COC(=O)[C@H](CC(=O)O)NC(=O)c1sc(Br)c(Br)c1F [1.1043]
70 | 2.58^[a] | COC(=O)[C@H](CC(=O)O)NC(=O)c1sc(Cl)c(Cl)c1Br [1.1044]
71 | 2.07^[a] | CNC(=O)CNC(=O)c1sc(Br)c(Br)c1Cl [1.1045]
72 | 3.94^[a] | CCOC(=O)C1(NC(=O)c2sc(Br)c(Cl)c2Cl)CSC1 [1.1046]
73 | 2.23^[a] | COC(=O)[C@H](CC(N)=O)NC(=O)c1sc(Cl)c(Cl)c1Br [1.1047]

Row | LogP | SMILES
74 | 2.05^[a] | COC(=O)[C@H](CCC(N)=O)NC(=O)c1sc(Br)c(Br)c1F [1.1048]
75 | 2.25^[a] | COC(=O)[C@H](CCC(N)=O)NC(=O)c1sc(Cl)c(Cl)c1Br [1.1049]
76 | 2.68^[a] | COC(=O)[C@H](CCC(=O)O)NC(=O)c1sc(Cl)c(Cl)c1Br [1.1050]
77 | 3.15^[a] | CCOC(=O)C1(NC(=O)c2sc(Br)c(Br)c2C#N)CSC1 [1.1051]
78 | 3.58^[a] | CCOC(=O)C1(NC(=O)c2sc(Br)c(Br)c2C(F)F)CSC1 [1.1052]
79 | 3.34^[a] | COC(=O)C(C)(C)NC(=O)c1sc(C#N)c(Br)c1Br [1.1053]
80 | 3.05^[a] | CCOC(=O)C1(NC(=O)c2sc(Cl)c(Cl)c2C#N)CSC1 [1.1054]
81 | 3.85^[a] | N#CC1(NC(=O)c2sc(Br)c(Br)c2Cl)CCCSC1 (stereo not drawn) [1.1055]
82 | 3.41^[a] | N#CC1(NC(=O)c2sc(Br)c(Br)c2F)CCCSC1 (stereo not drawn) [1.1056]
83 | 3.66^[a] | CCOC(=O)C1(NC(=O)c2sc(Cl)c(Br)c2C)CSC1 [1.1057]
84 | 2.12^[a] | N#CCNC(=O)c1sc(C#N)c(Br)c1Br [1.1058]
85 | 3.55^[a] | CCOC(=O)C1(NC(=O)c2sc(Cl)c(Cl)c2C(F)F)CSC1 [1.1059]
86 | 3.91^[a] | CCOC(=O)C1(NC(=O)c2sc(Cl)c(Br)c2Br)CSC1 [1.1060]
87 | 3.21^[a] | COC(=O)C(C)(C)NC(=O)c1sc(Br)c(Br)c1C(F)F [1.1061]
88 | 4.24^[a] | CCOC(=O)C(C)(C)NC(=O)c1sc(Cl)c(Cl)c1Br [1.1062]
89 | 3.62^[a] | CCOC(=O)C1(NC(=O)c2sc(Br)c(Cl)c2C)CSC1 [1.1063]
90 | 2.63^[a] | CCOC(=O)C(CO)NC(=O)c1sc(Br)c(Br)c1C(F)F (stereo not drawn) [1.1064]
91 | 3.55^[a] | COC(=O)C(CCSC)NC(=O)c1sc(Br)c(Br)c1C(F)F (stereo not drawn) [1.1065]
92 | 3.05^[a] | COC(=O)C(NC(=O)c1sc(Br)c(Br)c1C(F)F)C(=O)OC [1.1067]
93 | 2.67^[a] | CCOC(=O)C(CO)NC(=O)c1sc(Cl)c(Cl)c1C(F)F (stereo not drawn) [1.1068]
94 | 3.52^[a] | COC(=O)C(CCSC)NC(=O)c1sc(Cl)c(Cl)c1C(F)F (stereo not drawn) [1.1069]
95 | 3.16^[a] | COC(=O)C(C)(C)NC(=O)c1sc(Cl)c(Cl)c1C(F)F [1.1070]

same assay, conditions: reversed phase HPLC columns, value in preparation example, method not marked

Row | chromatographic logP | SMILES
96 | 2.4 | CCOC(=O)CNC(=O)c1sc(C#N)c(Br)c1C [I.0024, ethyl N-[(4-bromo-5-cyano-3-methyl-2-thienyl)carbonyl]glycinate]
